Test results published in patent US12545659B2, “IRAK degraders and uses thereof” (Kymera Therapeutics, Inc., priority 2019, dated 2026).
Where two headings read alike, the source gives them in different places. Values belong to the compound of their own block, whether it stands above or below them.

Tests used:
[1] = cn_pd bond, 80.0 °C
[2] = cn_pd bond, 14-membered ring
SUDHL-2 cells = experiment: CTG Cell Viability Assay - SUDHL-2; format: cell-based; settings: Homo sapiens, SU-DHL-2, 96 h
Procedure: (§1) Compound-mediated viability effect on OCI-LY10 or SUDHL-2 was quantitatively determined using the CellTiter-Glo® Luminescent Cell Viability Assay kit from Promega (Catalog number G7570) following manufacturer's recommended procedures. Briefly, OCI-LY10 or SUDHL-2 cells were seeded into 384 well plates (Grenier Bio-One, Catalog number 781080) with a density of 10,000 cells per well. Compounds were then added to the assay plate with final top concentration of 10 M and 1:3 dilution series with total of 9 doses. The final DMSO concentration was normalized to 0.2%. The assay plates were incubated at 37° C. for 4 days under 5% CO2. Then the assay plate was equilibrated at room temperature for 10 minutes. To determine cell viability, L CellTiter Glo reagent was added to each well and the assay plate was centrifuged at 1000 rpm for 30 second, incubated at room temperature for 10 min, and analyzed by detecting the luminescence using a multimode plate reader (EnVision 2105, PerkinElmer). The data was then analyzed by software Prism 7.0 from GraphPad and the dose response curves were fit using a three-parameter logistic equation to calculate IC50.

OCI-LY10 cells = experiment: CTG Cell Viability Assay - OCI-LY10; format: cell-based; settings: Homo sapiens
Procedure: as §1

[3] = molecular target: T1, Ikaros (protein product of gene IKZF1) (Homo sapiens, UniProt Q13422+Q96SW2); experiment: Ikaros degradation in OCI-LY10 (quantitative immunoblotting); format: cell-based; settings: OCI-LY10 cells, 6 h, immunoblot relative to actin; read-out: Ikros Degradation in OCI-LY10: DC50
T1 construct: endogenous in cells; host or cells: OCI-LY10
T1 sequence (Q13422 whole entry): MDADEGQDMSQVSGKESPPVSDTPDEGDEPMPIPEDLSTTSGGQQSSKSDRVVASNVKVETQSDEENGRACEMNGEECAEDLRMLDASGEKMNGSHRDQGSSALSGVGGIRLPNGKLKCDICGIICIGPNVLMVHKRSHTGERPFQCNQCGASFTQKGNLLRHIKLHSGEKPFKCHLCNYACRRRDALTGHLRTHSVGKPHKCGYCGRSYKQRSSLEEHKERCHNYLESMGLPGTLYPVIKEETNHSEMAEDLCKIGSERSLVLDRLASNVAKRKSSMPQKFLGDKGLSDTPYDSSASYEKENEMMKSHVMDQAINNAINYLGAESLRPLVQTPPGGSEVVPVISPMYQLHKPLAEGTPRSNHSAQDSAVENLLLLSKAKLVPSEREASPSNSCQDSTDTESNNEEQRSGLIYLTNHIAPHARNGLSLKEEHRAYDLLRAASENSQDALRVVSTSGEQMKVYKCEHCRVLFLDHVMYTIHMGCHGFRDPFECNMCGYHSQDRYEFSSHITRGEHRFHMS
T1 sequence (Q96SW2 whole entry): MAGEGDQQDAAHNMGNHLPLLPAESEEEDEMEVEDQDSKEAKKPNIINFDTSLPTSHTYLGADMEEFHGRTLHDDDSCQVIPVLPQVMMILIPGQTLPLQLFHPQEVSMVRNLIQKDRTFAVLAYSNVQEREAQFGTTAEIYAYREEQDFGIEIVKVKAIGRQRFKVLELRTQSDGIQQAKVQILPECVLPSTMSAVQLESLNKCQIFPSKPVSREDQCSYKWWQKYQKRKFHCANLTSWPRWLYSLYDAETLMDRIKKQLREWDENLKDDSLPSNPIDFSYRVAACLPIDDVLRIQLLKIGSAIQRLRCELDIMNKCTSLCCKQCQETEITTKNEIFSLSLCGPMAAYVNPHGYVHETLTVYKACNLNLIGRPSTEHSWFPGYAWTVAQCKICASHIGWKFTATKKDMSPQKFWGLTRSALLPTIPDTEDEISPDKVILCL
T1 sequence (Q16531 whole entry partner): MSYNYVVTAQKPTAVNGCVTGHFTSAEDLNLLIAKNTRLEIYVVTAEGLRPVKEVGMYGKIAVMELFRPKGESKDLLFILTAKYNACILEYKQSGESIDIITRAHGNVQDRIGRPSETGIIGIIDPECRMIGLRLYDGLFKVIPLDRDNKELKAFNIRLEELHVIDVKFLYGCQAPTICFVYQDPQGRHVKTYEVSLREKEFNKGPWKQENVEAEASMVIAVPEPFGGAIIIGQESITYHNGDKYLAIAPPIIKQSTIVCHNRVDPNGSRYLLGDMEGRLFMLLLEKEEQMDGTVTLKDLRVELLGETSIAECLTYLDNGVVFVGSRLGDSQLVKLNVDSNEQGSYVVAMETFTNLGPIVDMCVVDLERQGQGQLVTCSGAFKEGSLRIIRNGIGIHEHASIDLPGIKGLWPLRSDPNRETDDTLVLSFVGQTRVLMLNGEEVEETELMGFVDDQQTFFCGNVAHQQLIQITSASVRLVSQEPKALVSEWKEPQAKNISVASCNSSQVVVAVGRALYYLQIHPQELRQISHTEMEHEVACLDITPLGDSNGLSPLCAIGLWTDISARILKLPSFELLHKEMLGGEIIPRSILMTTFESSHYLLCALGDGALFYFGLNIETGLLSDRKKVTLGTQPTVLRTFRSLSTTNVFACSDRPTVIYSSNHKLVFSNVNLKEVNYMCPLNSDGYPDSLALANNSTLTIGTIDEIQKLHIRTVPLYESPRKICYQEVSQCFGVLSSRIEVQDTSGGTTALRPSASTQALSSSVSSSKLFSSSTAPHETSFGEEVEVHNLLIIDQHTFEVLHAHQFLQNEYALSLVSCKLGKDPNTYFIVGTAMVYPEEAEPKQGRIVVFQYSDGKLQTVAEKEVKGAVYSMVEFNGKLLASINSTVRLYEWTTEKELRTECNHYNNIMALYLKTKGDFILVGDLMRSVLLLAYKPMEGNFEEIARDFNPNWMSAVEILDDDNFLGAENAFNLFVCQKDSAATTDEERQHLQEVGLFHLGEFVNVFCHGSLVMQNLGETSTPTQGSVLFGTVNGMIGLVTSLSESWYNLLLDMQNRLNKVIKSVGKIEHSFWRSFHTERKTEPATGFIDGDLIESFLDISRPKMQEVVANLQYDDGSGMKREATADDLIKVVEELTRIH
Procedure: (§2) Degradation of Ikaros (protein product of gene IKZF1) and Aiolos (protein product of gene IKZF3) were determined by quantitative immunoblotting as follows. OCI-LY10 cells, 2×10^6 cells/well, were treated with listed concentrations of IRAK4 degraders or control compounds in 6 well plates for 6 h. Cells were collected, washed with cold PBS, lysed in RIPA buffer (Boston BioProducts BP-115D) with protease/phosphatase inhibitor cocktail (Roche 05892791001/Roche 04906837001) and centrifuged at 13000 RPM for 20 min to precipitate insoluble material. The supernatant fraction was diluted in SDS-PAGE loading buffer (Beyotime Bio P0015) and 20 L of each sample was resolved on 4-12% Bis-Tris SDS-PAGE gels (Novex, WG1402BOX). Resolved samples were transferred to nitrocellulose membranes by wet electro-transfer method at […] for 1.5 h. The membrane was blocked with LICOR blocking buffer (LI-COR, 927-50000) for 1 hour, washed three times with TBST (CST #9997S) for 5 minutes each and incubated with primary antibody prepared in block buffer with 0.1% Tween-20 (Solarbio, P8220) at 4° C. overnight. Ikaros antibody was rabbit monoclonal D6N9Y (CST #14859), at 1:1000 dilution. Aiolos antibody was rabbit monoclonal D1C1E (CST #15103), at 1:1000 dilution. Signal was normalized to mouse anti-beta-Actin monoclonal 8H10D10 (CST #3700) used at 1:10,000 dilution. After incubation in primary antibodies, membranes were washed three times with TBST, 5 minutes each, incubated with fluorescently labeled secondary antibodies anti-rabbit IgG (Licor, 926-32211) at 1:5000 dilution; anti-mouse IgG (LI-COR, 926-68070) at 1:5000 dilution, for 1 hour at RT. After incubation in secondary, membranes were washed three times with TBST, 5 minutes each and read on LICOR Odyssey imager. Data was reported as signal for Ikaros or Aiolos relative to signal for actin, and normalized to DMSO-treated control.
(§3) The letter codes for Ikaros and Aiolos DC50 include: A (<0.05 μM); B (0.05-0.1 μM); C (0.1-0.5 μM); D (0.5-1.0 μM); and E (>1.0 μM).

[4] = molecular target: T2, Aiolos (protein product of gene IKZF3) (Homo sapiens, UniProt Q9UKT9); experiment: Aiolos degradation in OCI-LY10 (quantitative immunoblotting); format: cell-based; settings: OCI-LY10 cells, 6 h, immunoblot relative to actin
T2 construct: endogenous in cells; host or cells: OCI-LY10
T2 sequence (Q9UKT9 whole entry): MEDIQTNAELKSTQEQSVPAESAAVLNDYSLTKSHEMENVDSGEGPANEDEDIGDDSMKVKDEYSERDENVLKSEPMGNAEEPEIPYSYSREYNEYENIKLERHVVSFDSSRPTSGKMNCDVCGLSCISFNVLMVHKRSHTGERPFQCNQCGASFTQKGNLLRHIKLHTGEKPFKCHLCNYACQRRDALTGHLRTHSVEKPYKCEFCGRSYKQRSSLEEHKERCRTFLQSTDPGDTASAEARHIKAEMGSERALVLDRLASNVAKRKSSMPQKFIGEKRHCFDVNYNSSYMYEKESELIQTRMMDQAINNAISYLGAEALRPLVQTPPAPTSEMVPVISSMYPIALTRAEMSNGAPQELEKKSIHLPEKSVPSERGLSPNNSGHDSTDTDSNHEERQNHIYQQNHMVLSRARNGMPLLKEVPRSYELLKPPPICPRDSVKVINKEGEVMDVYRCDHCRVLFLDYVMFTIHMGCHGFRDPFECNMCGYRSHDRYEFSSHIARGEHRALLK
T2 sequence (Q96SW2 whole entry, further chain): as the sequence (Q96SW2 whole entry) above
T2 sequence (Q16531 whole entry partner): as the sequence (Q16531 whole entry partner) above
Procedure: as §2, §3

IRAK4 = molecular target: T3, IRAK4 (Homo sapiens, UniProt Q9NWZ3); experiment: IRAK4 MSD Degradation in OCI-LY10; format: cell-based; settings: OCI-LY10 cells
T3 construct: endogenous in cells; host or cells: OCI-LY10
T3 sequence (Q9NWZ3 1-460): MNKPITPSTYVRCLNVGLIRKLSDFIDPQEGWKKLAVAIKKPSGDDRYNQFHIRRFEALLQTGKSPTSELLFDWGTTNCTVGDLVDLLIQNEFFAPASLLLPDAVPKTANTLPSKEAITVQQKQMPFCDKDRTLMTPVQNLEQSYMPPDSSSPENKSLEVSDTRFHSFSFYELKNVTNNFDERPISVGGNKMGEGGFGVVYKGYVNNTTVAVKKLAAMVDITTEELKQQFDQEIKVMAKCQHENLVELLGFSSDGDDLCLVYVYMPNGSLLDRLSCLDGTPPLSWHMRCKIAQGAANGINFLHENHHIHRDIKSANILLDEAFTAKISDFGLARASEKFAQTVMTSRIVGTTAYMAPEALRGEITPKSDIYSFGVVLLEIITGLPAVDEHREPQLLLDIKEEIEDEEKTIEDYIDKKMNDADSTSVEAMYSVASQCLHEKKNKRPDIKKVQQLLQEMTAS
How it was run: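 IRAK4 remaining in lysates was read by Meso Scale electrochemiluminescence sandwich (2H9 capture, Y279 plus SULFO-TAG detection). Cells were exposed 4 to 24 h at 37 °C to eight 3-fold dilutions from 1 to 10 μM final top; three-parameter logistic fit gave DC50.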

[5] = system: OCI-LY10 (MYD88 mutant DLBCL cell line); experiment: OCI-LY10 viability, CTG; format: cell-based; settings: Homo sapiens, OCI-Ly10, read-out: OCI-LY10 Viability, CTG IC50
U2932 (MYD88 WT line) = experiment: U2932 viability, CTG; format: cell-based; settings: Homo sapiens, in vitro
OCI-LY19 (MYD88 WT line) = experiment: OCI-LY19 viability, CTG; format: cell-based; settings: Homo sapiens, in vitro
SU-DHL6 (MYD88 WT line) = experiment: SU-DHL6 viability, CTG; format: cell-based; settings: Homo sapiens, SU-DHL-6, in vitro
[6] = system: SU-DHL2 (MYD88 mutant DLBCL cell line); experiment: SU-DHL2 viability, CTG; format: cell-based; settings: Homo sapiens, SU-DHL-2, read-out: SU-DHL2 Viability, CTG IC50
[7] = SUDHL-2 cells, 4 days, CellTiter-Glo, read-out: CTG Cell Viability Assay - SUDHL-2: IC50
[8] = 96 h, OCI-LY10 cells, 4 days, CellTiter-Glo, read-out: CTG Cell Viability Assay - OCI-LY10: IC50
[9] = 4 hrs incubation, read-out: IRAK4 degradation in OCI-LY10 at 4 hrs: DC50
[10] = 24 hrs incubation, read-out: IRAK4 degradation in OCI-LY10 at 24 hrs: DC50

Compound: NC(=O)c1cccc(OCCCCCOc2cc3nn(C4CCC(CO)CC4)cc3cc2Br)n1 (stereo not shown)
- ring closure, isolated yield ([1]; the molecule shown is the open-chain precursor, 14-membered ring, BrettPhos Pd G4/Cs2CO3, DMA, 9.4 mM): 39%

Compound: NC(=O)c1cccc(OCCO[C@@H]2CCN(c3cc4nn(C5CCC(CO)CC5)cc4cc3Br)C2)c1 (stereo partly shown)
- ring closure, yield after HPLC ([2]; the molecule shown is the open-chain precursor, BrettPhos-Pd-G4/BrettPhos/Cs2CO3, dioxane, 53.8 mM, 60.0 °C): 31%

Compound: 12-((1R,4R)-4-(hydroxymethyl)cyclohexyl)-12H-5,8,11-trioxa-2-aza-1(5,6)-indazola-4(2,6)-pyridinacycloundecaphan-3-one
- ring closure, yield after HPLC ([2]; BrettPhos Pd G4/Cs2CO3, DMA, 21.2 mM, 80.0 °C): 58%

Compound: 12-((1R,4R)-4-(hydroxymethyl)cyclohexyl)-12H-5,10-dioxa-2-aza-1(5,6)-indazola-4(2,6)-pyridinacyclodecaphan-3-one
- ring closure, isolated yield ([1]; 13-membered ring, Pd2(dba)3/Xantphos/Cs2CO3, dioxane, 18.1 mM): 55%

- IC50 (SUDHL-2 cells; [7]): 0.1 to 0.5 µM
- IC50 (OCI-LY10 cells; [8]): < 0.05 µM
- DC50 [4]: < 50 nM
- DC50 (IRAK4; [9]): < 50 nM
- DC50 (IRAK4; [10]): 50 to 100 nM
Compound: COc1cc2nn([C@H]3CC[C@H](CN4CC5(CC(CCNc6cccc7c6C(=O)N(C6CCC(=O)NC6=O)C7=O)C5)C4)CC3)cc2cc1NC(=O)c1cccc(C(C)(F)F)n1 (mixture of isomers) [I-93, 6-(1,1-difluoroethyl)-N-[2-[4-[[6-[2-[[2-(2,6-dioxo-3-piperidyl)-1,3-dioxo-isoindolin-4-yl]amino]ethyl]-2-azaspiro[3.3]heptan-2-yl]methyl]cyclohexyl]-6-methoxy-indazol-5-yl]pyridine-2-carboxamide]
- DC50 [3]: < 50 nM

Compound: CN(C[C@H]1CC[C@H](n2cc3cc(NC(=O)c4cccc(C(F)(F)F)n4)c(C(C)(C)O)cc3n2)CC1)C1CCN(Cc2cccc3c2n(C)c(=O)n3C2CCC(=O)NC2=O)CC1 (stereo partly shown) [I-1]
- IC50 [5]: > 10000 nM
- IC50 (U2932 (MYD88 WT line)): > 10000 nM
- IC50 (OCI-LY19 (MYD88 WT line)): > 10000 nM
- IC50 (SU-DHL6 (MYD88 WT line)): 5600 nM
- IC50 [6]: > 10000 nM
- DC50 (IRAK4; [10]): 100 to 500 nM

Compound: COc1cc2nn([C@H]3CC[C@H](CN4CCC5(CC4)CC(CCNc4cccc6c4C(=O)N(C4CCC(=O)NC4=O)C6=O)C5)CC3)cc2cc1NC(=O)c1cccc(C(C)(F)F)n1 (stereo partly shown) [I-63, 6-(1,1-Difluoroethyl)-N-[2-[4-[[2-[2-[[2-(2,6-dioxo-3-piperidyl)-1,3-dioxo-isoindolin-4-yl]amino]ethyl]-7-azaspiro[3.5]nonan-7-yl]methyl]cyclohexyl]-6-methoxy-indazol-5-yl]pyridine-2-carboxamide]
- IC50 (SUDHL-2 cells; read-out: CTG Cell Viability Assay - SUDHL-2: IC50 (μM)): 0.1 to 0.5 µM
- IC50 (OCI-LY10 cells; OCI-Ly10, 96 h, read-out: CTG Cell Viability Assay - OCI-LY10: IC50 (μM)): 0.05 to 0.1 µM
- DC50 [3]: < 50 nM
- DC50 [4]: < 50 nM
- DC50 (IRAK4; [9]): < 50 nM
- DC50 (IRAK4; [10]): 50 to 100 nM

- IC50 (SUDHL-2 cells; [7]): > 1 µM
- IC50 (OCI-LY10 cells; [8]): < 0.05 µM
- DC50 [4]: < 50 nM
- DC50 (IRAK4; [9]): < 50 nM
- DC50 (IRAK4; [10]): 50 to 100 nM
Compound: COc1cc2nn([C@H]3CC[C@H](CN4CCC5(CC4)CC(CNc4cccc6c4C(=O)N(C4CCC(=O)NC4=O)C6=O)C5)CC3)cc2cc1NC(=O)c1cccc(C(F)(F)F)n1 (stereo partly shown) [I-201, N-[2-[4-[[2-[[[2-(2,6-dioxo-3-piperidyl)-1,3-dioxo-isoindolin-4 yl]amino]methyl]-7-azaspiro[3.5]nonan-7-yl]methyl]cyclohexyl]-6-methoxy-indazol-5-yl]-6-(trifluoromethyl)pyridine-2-carboxamide]
- DC50 [3]: 50 to 100 nM
